Measured values published in PubChem BioAssay AID2060622 (Molecular Pharmacology Branch, DTP, NCI, 2025).

Test system: 242566-281-R-J2-PDC complex spheroid viability
Assay: Anticancer human tumor 242566-281-R-J2-PDC patient-derived pancreatic carcinoma cell line growth inhibition [CLK]
Conditions: for IC50: curve of first compound; for viability, T/C: stronger effect = lower value
Procedure, shortened: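 Patient-derived tumor cells grown as complex spheroids with HUVEC endothelial cells and mesenchymal stem cells, treated with drug combinations. Concentrations descend in half-log steps from near clinical Cmax, or from 10 microM if Cmax unknown.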

[1] = second compound 0.0316 µM, first compound 0.0316 µM
[2] = second compound 0.0316 µM, first compound 0.1 µM
[3] = second compound 0.0316 µM, first compound 0.316 µM
[4] = second compound 0.0316 µM, first compound 1 µM
[5] = second compound 0.0316 µM, first compound 3.16 µM
[6] = second compound 0.0316 µM, first compound 10 µM
[7] = second compound 0.1 µM, first compound 0.0316 µM
[8] = second compound 0.1 µM, first compound 0.1 µM
[9] = second compound 0.1 µM, first compound 0.316 µM
[10] = second compound 0.1 µM, first compound 1 µM
[11] = second compound 0.1 µM, first compound 3.16 µM
[12] = second compound 0.1 µM, first compound 10 µM
[13] = second compound 0.316 µM, first compound 0.0316 µM
[14] = second compound 0.316 µM, first compound 0.1 µM
[15] = second compound 0.316 µM, first compound 0.316 µM
[16] = second compound 0.316 µM, first compound 1 µM
[17] = second compound 0.316 µM, first compound 3.16 µM
[18] = second compound 0.316 µM, first compound 10 µM
[19] = second compound 1 µM, first compound 0.0316 µM
[20] = second compound 1 µM, first compound 0.1 µM
[21] = second compound 1 µM, first compound 0.316 µM
[22] = second compound 1 µM, first compound 1 µM
[23] = second compound 1 µM, first compound 3.16 µM
[24] = second compound 1 µM, first compound 10 µM
[25] = second compound 3.16 µM, first compound 0.0316 µM
[26] = second compound 3.16 µM, first compound 0.1 µM
[27] = second compound 3.16 µM, first compound 0.316 µM
[28] = second compound 3.16 µM, first compound 1 µM
[29] = second compound 3.16 µM, first compound 3.16 µM
[30] = second compound 3.16 µM, first compound 10 µM
[31] = second compound 10 µM, first compound 0.0316 µM
[32] = second compound 10 µM, first compound 0.1 µM
[33] = second compound 10 µM, first compound 0.316 µM
[34] = second compound 10 µM, first compound 1 µM
[35] = second compound 10 µM, first compound 3.16 µM
[36] = second compound 10 µM, first compound 10 µM
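Note: spheroids exposed to compounds for 7 days before readout.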
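Throughout, for viability, T/C: 100% = DMSO vehicle control wells.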

CC(C)CC(NC(=O)C(Cc1ccccc1)NC(=O)c1cnccn1)B(O)O (stereo unspecified) + CN1CCN(c2cc(C(=O)Nc3cc4cc(-c5cnn(C)c5)ccc4cn3)ccn2)CC1
IC50 (second compound 0.0316 µM): 2.08 nM | IC50 (second compound 0.1 µM): 1.98 nM | IC50 (second compound 0.316 µM): < 0.949 nM | IC50 (second compound 1 µM): < 0.949 nM | IC50 (second compound 3.16 µM): < 0.949 nM | IC50 (second compound 10 µM): < 0.949 nM | viability, T/C (second compound 0.0316 µM, first compound 0.000949 µM): 103% | viability, T/C (second compound 0.0316 µM, first compound 0.003 µM): 25.5% | viability, T/C (second compound 0.0316 µM, first compound 0.00949 µM): 1.28% | viability, T/C (second compound 0.0316 µM, first compound 0.03 µM): 0.43% | viability, T/C (second compound 0.0316 µM, first compound 0.0949 µM): 0.27% | viability, T/C (second compound 0.0316 µM, first compound 0.3 µM): 0.23% | viability, T/C (second compound 0.1 µM, first compound 0.000949 µM): 98.8% | viability, T/C (second compound 0.1 µM, first compound 0.003 µM): 22.7% | viability, T/C (second compound 0.1 µM, first compound 0.00949 µM): 0.52% | viability, T/C (second compound 0.1 µM, first compound 0.03 µM): 0.43% | viability, T/C (second compound 0.1 µM, first compound 0.0949 µM): 0.39% | viability, T/C (second compound 0.1 µM, first compound 0.3 µM): 0.27% | viability, T/C (second compound 0.316 µM, first compound 0.000949 µM): 26.7% | viability, T/C (second compound 0.316 µM, first compound 0.003 µM): 2.24% | viability, T/C (second compound 0.316 µM, first compound 0.00949 µM): 0.29% | viability, T/C (second compound 0.316 µM, first compound 0.03 µM): 0.28% | viability, T/C (second compound 0.316 µM, first compound 0.0949 µM): 0.29% | viability, T/C (second compound 0.316 µM, first compound 0.3 µM): 0.51% | viability, T/C (second compound 1 µM, first compound 0.000949 µM): 5.2% | viability, T/C (second compound 1 µM, first compound 0.003 µM): 1.12% | viability, T/C (second compound 1 µM, first compound 0.00949 µM): 0.43% | viability, T/C (second compound 1 µM, first compound 0.03 µM): 0.31% | viability, T/C (second compound 1 µM, first compound 0.0949 µM): 0.26% | viability, T/C (second compound 1 µM, first compound 0.3 µM): 0.4% | viability, T/C (second compound 3.16 µM, first compound 0.000949 µM): 7.89% | viability, T/C (second compound 3.16 µM, first compound 0.003 µM): 1.95% | viability, T/C (second compound 3.16 µM, first compound 0.00949 µM): 0.39% | viability, T/C (second compound 3.16 µM, first compound 0.03 µM): 0.2% | viability, T/C (second compound 3.16 µM, first compound 0.0949 µM): 0.38% | viability, T/C (second compound 3.16 µM, first compound 0.3 µM): 0.8% | viability, T/C (second compound 10 µM, first compound 0.000949 µM): 1.93% | viability, T/C (second compound 10 µM, first compound 0.003 µM): 1.11% | viability, T/C (second compound 10 µM, first compound 0.00949 µM): 0.3% | viability, T/C (second compound 10 µM, first compound 0.03 µM): 0.44% | viability, T/C (second compound 10 µM, first compound 0.0949 µM): 0.26% | viability, T/C (second compound 10 µM, first compound 0.3 µM): 0.34%

CC(Nc1ccc2c(c1)OCCn1cc(N3C(=O)OCC3C(F)F)nc1-2)C(N)=O (stereo unspecified) + CNC(=O)c1ccc(Nc2nc(OC3CCCC3)c3c(-c4ccc5nc(C)oc5c4)c[nH]c3n2)c(OC)c1
IC50 (second compound 0.0316 µM): 2140 nM | IC50 (second compound 0.1 µM): 1770 nM | IC50 (second compound 0.316 µM): 690 nM | IC50 (second compound 1 µM): 92.4 nM | IC50 (second compound 3.16 µM): < 31.6 nM | IC50 (second compound 10 µM): < 31.6 nM | viability, T/C [1]: 84.6% | viability, T/C [2]: 91.4% | viability, T/C [3]: 75.9% | viability, T/C [4]: 62.4% | viability, T/C [5]: 44.4% | viability, T/C [6]: 30.6% | viability, T/C [7]: 100% | viability, T/C [8]: 96.5% | viability, T/C [9]: 70.4% | viability, T/C [10]: 62.2% | viability, T/C [11]: 40.3% | viability, T/C [12]: 28.2% | viability, T/C [13]: 82.3% | viability, T/C [14]: 77.6% | viability, T/C [15]: 59.6% | viability, T/C [16]: 44% | viability, T/C [17]: 32.8% | viability, T/C [18]: 21.6% | viability, T/C [19]: 63.9% | viability, T/C [20]: 47.2% | viability, T/C [21]: 38.5% | viability, T/C [22]: 26.8% | viability, T/C [23]: 19.8% | viability, T/C [24]: 14.2% | viability, T/C [25]: 44.4% | viability, T/C [26]: 32.9% | viability, T/C [27]: 27.5% | viability, T/C [28]: 22.8% | viability, T/C [29]: 15.7% | viability, T/C [30]: 11.6% | viability, T/C [31]: 41% | viability, T/C [32]: 33.6% | viability, T/C [33]: 28.2% | viability, T/C [34]: 20.3% | viability, T/C [35]: 15.1% | viability, T/C [36]: 10.6%

COc1ccc([C@@H](O)c2cc(-c3ncnc4cc(N5CCOCC5)ccc34)c(F)cc2Cl)nn1 + CN1CCN(c2cc(C(=O)Nc3cc4cc(-c5cnn(C)c5)ccc4cn3)ccn2)CC1
IC50 (second compound 0.0316 µM): > 10000 nM | IC50 (second compound 0.1 µM): 6170 nM | IC50 (second compound 0.316 µM): < 31.6 nM | IC50 (second compound 1 µM): < 31.6 nM | IC50 (second compound 3.16 µM): < 31.6 nM | IC50 (second compound 10 µM): < 31.6 nM | viability, T/C [1]: 106% | viability, T/C [2]: 104% | viability, T/C [3]: 90.4% | viability, T/C [4]: 87% | viability, T/C [5]: 70.3% | viability, T/C [6]: 50.1% | viability, T/C [7]: 97.9% | viability, T/C [8]: 85% | viability, T/C [9]: 80.1% | viability, T/C [10]: 73.6% | viability, T/C [11]: 67.5% | viability, T/C [12]: 38.8% | viability, T/C [13]: 30.2% | viability, T/C [14]: 22.3% | viability, T/C [15]: 26.9% | viability, T/C [16]: 20.3% | viability, T/C [17]: 25% | viability, T/C [18]: 11.8% | viability, T/C [19]: 5.5% | viability, T/C [20]: 4.93% | viability, T/C [21]: 4.05% | viability, T/C [22]: 4.46% | viability, T/C [23]: 4.87% | viability, T/C [24]: 5.56% | viability, T/C [25]: 6.52% | viability, T/C [26]: 6.92% | viability, T/C [27]: 5.95% | viability, T/C [28]: 6.56% | viability, T/C [29]: 7.75% | viability, T/C [30]: 6.44% | viability, T/C [31]: 1.12% | viability, T/C [32]: 1.29% | viability, T/C [33]: 1.09% | viability, T/C [34]: 1.69% | viability, T/C [35]: 2.12% | viability, T/C [36]: 1.23%
